Measured values taken from patent US8846103B2, “Exogenously triggered controlled release materials and uses thereof” (SmartCells, Inc., priority 2009, dated 2014).

Columns and labels:
concanavalin A (Con A) = concanavalin A (Con A) (Canavalia ensiformis, UniProt P02866); details: higher affinity than glucose; cited from earlier work
non-diabetic SD rats = type: in vivo, Sprague Dawley (SD) rats
Description: FIG. 3: (a) Plot of (♦) serum insulin and (◯) blood glucose levels following subcutaneous injection in non-diabetic SD rats at time 0 with TSB-C4-AEBM-2-insulin/native Con A (an α-methyl mannose-responsive material). An i.p. injection of α-methyl mannose was administered at 120 min as indicated by the *.
0.300 ml of the formulation prepared in Example 1 was injected subcutaneously into each of three normal male Sprague Dawley (SD) rats (Charles River Laboratories, Wilmington, Mass.) weighing between 400 and 500 g. Prior to formulation injection, blood glucose values were measured via tail vein bleeding using a Precision Xtra glucometer (Abbott Laboratories, Alameda, Calif.) and approximately 100 ul of serum was obtained via tail vein bleeding to assay for background insulin levels. Food was removed from the rat cages during the duration of the study. Serum and blood glucose values were obtained at 30 min, 60 min, 90 min, and 120 min post-injection. At 120 min after the injection, an intraperitoneal injection of a 25% w/v α-methyl-mannose solution was injected to provide a 2 g/kg dose after which serum and blood glucose values were obtained at 135 min, 150 min, 180 min, 210 min, 240 min, and 300 min.

COC1O[C@H](CO)[C@@H](O)[C@H](O)[C@@H]1O (stereo partly drawn) [α-methyl-mannose]
affinity for Con A relative to endogenous glucose (concanavalin A (Con A)): about 40 fold

exemplary conjugate with two AEBM affinity ligands: Conjugate with TSB-C4 as the scaffold, AEBM as the affinity ligand, insulin (conjugated at Phe-B1) as the drug
conjugate release at physiologically normal blood glucose levels (background release) (non-diabetic SD rats; rat, in vivo, sc): very little background release | response to exogenous α-methyl-mannose (non-diabetic SD rats; summary statement on Examples 1-2): significant response
